Measurements reported in patent US8017162B2, “Anti-inflammatory agent” (Oryza Oil & Fat Chemical Co., Ltd., priority 2005, dated 2011).
Values joined by “and” are separate entries in the source; they are usually repeats but may differ in a detail not shown here. Equal values may be shown once. “Also recorded” adds a separate entry of the source.

Key:
RAW264.7 cells = assay: NO production inhibition test (LPS, Griess Method); assay type: cell-based, mouse
Description: A 200 microliter each of the continuously-cultivated RAW264.7 cells (10^6 cells/mL) should be seeded into 48-well plate. After 24 hours, replace the culture medium with a serum-free culture medium. Then, add the LPS (final concentration: 10 microgram/mL) and samples (Examples 1 & 2), and then cultivate for 24 hours. Collect the supernatant (100 microliter) and determine the amount of NO by the Griess Method.

adjuvant arthritis [1] = assay: Preventive effect on adjuvant arthritis: edema volume of the tarsus (footpad volume); assay type: in vivo, rats
From the text: Firstly, subcutaneously administer the adjuvant to the right tarsus of the rats under the following condition so that the arthritis is caused in the mice. On the second day that the arthritis is induced, orally administer the red ginger extract to the rats for four consecutive weeks by the following method, and regularly observe the tarsus edema of the rats and the anti-inflammatory effect of the test substance. Weigh at once the two-day doses of the red ginger extract as the test substance described in Example 1, and use the red ginger extract suspended with the 0.5% CMC-Na. At this time, prepare the high-dose test substance (10 mg/5 mL/kg). Then, […] the liquid to prepare the low-dose test substance (1 mg/5 mL/kg). Weigh the necessary amount of Indomethacin (Lot No. 122K0718, Sigma-Aldrich, Inc.) which is commercially available. Then prepare freshly the positive control substance with the injection solvent until it becomes 0.5 mg/5 mL/kg. Then, dispose of it after all the administrations have been completed. 2. Firstly, obtain 28 mice (7-week-old, SD (CrjBgi:CD) IGS mice, male SPF) from ORIENT CO., LTD. Then, quarantine and naturalize the mice for more than 7 days. After observing the mice during the period of naturalization and quarantine, use the mice that are alive and which have no problems in the weight and general status. When the mice were grouped, the weight ranged from 279.3 to 328.7 g. When the inflammation was induced, the weight ranged from 283.7 to 333.9 g. When the autopsy was conducted, the weight ranged from 293.4 g to 440.8 g. 3. Administration The test substance was forcibly administered to the mice through a stomach sonde or syringe once a day for a period of 28 days after the inflammation was induced. As shown in the chart below, there are 4 groups, and each group has seven examples (i.e. 7 mice). The test substance was orally administered to each mouse for 28 days from the day after the inflammation was induced. During the period when the test substance was administered, the edema of the right tarsus of each mouse was X-rayed twice a week. From the day after the test was completed, the right and left tarsuses of each mouse were X-rayed twice a week, and the effect of the test substance on the bone was verified. The solution (1.0 mg/0.1 mL) was made from 1 mL of FREUND'S INCOMPLETE ADJUTANT (FIA) and 10 mg of killed bacteria (fungus body)—MYCOBACTERIUM BUTYRICUM (Lot Ni. 5129117, Difco). The FIA and the killed bacteria were sufficiently suspended, and then approx. […] of the solution was administered to the subcutaneous of the footpads of the right, hind leg of each mouse. To verify the degree and the increase of the edema volume before and after the adjuvant was induced, the footpad volume of the right hind leg was measured by using Digital Pletysmometer, LE7500 (Panlab SL, Spain) twice each time immediately before the adjuvant was induced, and again on Days 3, 6, 10, 13, 17, 20, 24 and 27 after the adjuvant was induced. Each measured value was determined by Dunnet's Test using the Graphad Instat Program (Ver. 4.5, USA), and the significant difference test was conducted.

adjuvant arthritis [2] = assay: Adjuvant arthritis: X-ray determination of tarsus and interphalangeal articulation (radiographic index); assay type: in vivo, rats; settings: 0.5 mg/kg
From the text: Firstly, subcutaneously administer the adjuvant to the right tarsus of the rats under the following condition so that the arthritis is caused in the mice. On the second day that the arthritis is induced, orally administer the red ginger extract to the rats for four consecutive weeks by the following method, and regularly observe the tarsus edema of the rats and the anti-inflammatory effect of the test substance. 2. Firstly, obtain 28 mice (7-week-old, SD (CrjBgi:CD) IGS mice, male SPF) from ORIENT CO., LTD. Then, quarantine and naturalize the mice for more than 7 days. After observing the mice during the period of naturalization and quarantine, use the mice that are alive and which have no problems in the weight and general status. When the mice were grouped, the weight ranged from 279.3 to 328.7 g. When the inflammation was induced, the weight ranged from 283.7 to 333.9 g. When the autopsy was conducted, the weight ranged from 293.4 g to 440.8 g. 3. Administration The test substance was forcibly administered to the mice through a stomach sonde or syringe once a day for a period of 28 days after the inflammation was induced. As shown in the chart below, there are 4 groups, and each group has seven examples (i.e. 7 mice). The test substance was orally administered to each mouse for 28 days from the day after the inflammation was induced. During the period when the test substance was administered, the edema of the right tarsus of each mouse was X-rayed twice a week. From the day after the test was completed, the right and left tarsuses of each mouse were X-rayed twice a week, and the effect of the test substance on the bone was verified. The solution (1.0 mg/0.1 mL) was made from 1 mL of FREUND'S INCOMPLETE ADJUTANT (FIA) and 10 mg of killed bacteria (fungus body)—MYCOBACTERIUM BUTYRICUM (Lot Ni. 5129117, Difco). The FIA and the killed bacteria were sufficiently suspended, and then approx. […] of the solution was administered to the subcutaneous of the footpads of the right, hind leg of each mouse. On the 27th day after the administration was begun, the edema was taken out. The hind leg was affixed with the neutral buffered formalin fixative (10%), and the image of the tarsus articulation area, including the interphalangeal articulation, was taken by a soft X-ray. The tarsus articulation and the interphalangeal articulation were verified by the degrees between −(normal status) and 5+(most serious status). A radiographic index was obtained by the method as shown in Chart 2, below. Add up the figures to determine the severity of the articular destruction. [table]

[3] = 1 μg/mL, LPS 10 microgram/mL, 24 hours, average ± SD
[4] = right leg, individual animals, listed as Indomet hacin
[5] = right leg, individual animals, listed as indomethacin

## CCCCC/C=C/C(=O)CCc1ccc(O)c(OC)c1 [Example 6-shogaol, 6-shogaol]
RAW264.7 cells; [3]
  NO in supernatant: 3.81 ± 0.29 µM
RAW264.7 cells; 3 μg/mL
  NO in supernatant: 3.60 ± 0.29 µM
RAW264.7 cells; 10 μg/mL
  Inhibition ratio (NO production): (13.6) %
  NO in supernatant: 3.21 ± 0.31 µM
RAW264.7 cells; 30 μg/mL
  Inhibition ratio (NO production): (29.8) %
  NO in supernatant: 2.79 ± 0.09 µM
RAW264.7 cells; 100 μg/mL
  Inhibition ratio (NO production): (90.7) %
  NO in supernatant: 1.22 ± 0.04 µM
RAW264.7 cells; compared with the other components
  Effect on NO production among the ingredients: comparatively strong effect

## CCCCCCCCC/C=C/C(=O)CCc1ccc(O)c(OC)c1 [Example 10-shogaol, 10-shogaol]
RAW264.7 cells; 1 μg/mL
  Inhibition ratio (NO production): (23.4) %
RAW264.7 cells; [3]
  NO in supernatant: 2.78 ± 0.10 µM
RAW264.7 cells; 3 μg/mL
  Inhibition ratio (NO production): (18.5) %
  NO in supernatant: 2.88 ± 0.11 µM
RAW264.7 cells; 10 μg/mL
  Inhibition ratio (NO production): (24.4) %
  NO in supernatant: 2.76 ± 0.10 µM
RAW264.7 cells; 30 μg/mL
  Inhibition ratio (NO production): (28.3) %
  NO in supernatant: 2.68 ± 0.70 µM
RAW264.7 cells; 100 μg/mL
  Inhibition ratio (NO production): (31.2) %
  NO in supernatant: 2.62 ± 0.71 µM

## CCCCCCC[C@H](O)CC(=O)CCc1ccc(O)c(OC)c1 [Example 8-gingerol, 8-gingerol]
RAW264.7 cells; 1 μg/mL
  Inhibition ratio (NO production): (4.7) %
RAW264.7 cells; [3]
  NO in supernatant: 4.17 ± 0.27 µM
RAW264.7 cells; 3 μg/mL
  Inhibition ratio (NO production): (7.7) %
  NO in supernatant: 4.06 ± 0.24 µM
RAW264.7 cells; 10 μg/mL
  Inhibition ratio (NO production): (13.3) %
  NO in supernatant: 3.86 ± 0.32 µM
RAW264.7 cells; 30 μg/mL
  Inhibition ratio (NO production): (20.7) %
  NO in supernatant: 3.59 ± 0.21 µM
RAW264.7 cells; 100 μg/mL
  Inhibition ratio (NO production): (31.5) %
  NO in supernatant: 3.20 ± 0.17 µM

## CCC[C@H](O)CC(=O)CCc1ccc(O)c(OC)c1 [Example 4-gingerol, 4-gingerol]
RAW264.7 cells; [3]
  NO in supernatant: 4.98 ± 0.22 µM
RAW264.7 cells; 3 μg/mL
  NO in supernatant: 5.10 ± 0.24 µM
RAW264.7 cells; 10 μg/mL
  NO in supernatant: 4.98 ± 0.22 µM
RAW264.7 cells; 30 μg/mL
  NO in supernatant: 5.03 ± 0.45 µM
RAW264.7 cells; 100 μg/mL
  NO in supernatant: 4.98 ± 0.26 µM

## COc1ccc2c(c1)c(CC(=O)O)c(C)n2C(=O)c1ccc(Cl)cc1 [Indomethacin]
Adjuvant arthritis [1]; 0.5 mg/kg oral once a day, Day 0 (before induction)
  Edema volume of the tarsus, right tarsus: 1.81 ± 0.07 mL
Adjuvant arthritis [1]; 0.5 mg/kg, Day 3
  Edema volume of the tarsus, right tarsus: 3.35 ± 0.18 mL
Adjuvant arthritis [1]; 0.5 mg/kg, Day 3, listed as indomethacin
  Edema volume of the tarsus, right tarsus: 3.35 mL
Adjuvant arthritis [1]; 0.5 mg/kg, Day 6
  Edema volume of the tarsus, right tarsus: 3.69 ± 0.40 mL
Adjuvant arthritis [1]; 0.5 mg/kg, Day 10
  Edema volume of the tarsus, right tarsus: 3.69 ± 0.36 mL
Adjuvant arthritis [1]; 0.5 mg/kg, Day 13
  Edema volume of the tarsus, right tarsus: 3.40 ± 0.43 mL
Adjuvant arthritis [1]; 0.5 mg/kg, Day 17
  Edema volume of the tarsus, right tarsus: 3.11 ± 0.59 mL
Adjuvant arthritis [1]; 0.5 mg/kg, Day 20
  Edema volume of the tarsus, right tarsus: 3.18 ± 0.52 mL
Adjuvant arthritis [1]; 0.5 mg/kg, Day 24
  Edema volume of the tarsus, right tarsus: 3.19 ± 0.51 mL
Adjuvant arthritis [1]; 0.5 mg/kg, Day 24, listed as indomethacin
  Edema volume of the tarsus, right tarsus: 3.19 mL
Adjuvant arthritis [1]; 0.5 mg/kg, Day 27
  Edema volume of the tarsus, right tarsus: 2.89 ± 0.34 mL
Adjuvant arthritis [2]
  Degree of disorder compared to the vehicle group: remarkably suppressed
Adjuvant arthritis [2]; right leg, individual animals
  Result (X-ray determination): 2+ (Moderate(−): 2+; 2points)
Adjuvant arthritis [2]; [4]
  Interphal angeal articulation: Bone destruction: − (Normal: −; 0 point); also recorded: + (Mild: +; 1 point)
  Interphal angeal articulation: Periostitis: + (Mild: +; 1 point); also recorded: − (Normal: −; 0 point)
  Interphal angeal articulation: Total: 1 points (5×) and 0 points and 2 points
  Tarsus articulation: Bone destruction: − (Normal: −; 0 point); also recorded: + (Mild: +; 1 point)
  Tarsus articulation: Periostitis: 2+ (Moderate(−): 2+; 2points) (6×) and 3+ (Moderate(+): 3+; 3 ponts)
  Tarsus articulation: Total: 2 points (2×) and 3 points (4×) and 4 points
Adjuvant arthritis [2]; [5]
  Interphal angeal articulation: Bone destruction: + (Mild: +; 1 point)
  Interphal angeal articulation: Periostitis: + (Mild: +; 1 point)
  Tarsus articulation: Bone destruction: + (Mild: +; 1 point)

## CCCCCCCCC[C@H](O)CC(=O)CCc1ccc(O)c(OC)c1 [Example 10-gingerol, 10-gingerol]
RAW264.7 cells; [3]
  NO in supernatant: 4.44 ± 0.27 µM
RAW264.7 cells; 3 μg/mL
  NO in supernatant: 4.32 ± 0.16 µM
RAW264.7 cells; 10 μg/mL
  NO in supernatant: 4.33 ± 0.50 µM
RAW264.7 cells; 30 μg/mL
  NO in supernatant: 4.28 ± 0.72 µM
RAW264.7 cells; 100 μg/mL
  Inhibition ratio (NO production): (21.1) %
  NO in supernatant: 3.55 ± 0.08 µM
